Common to all, as to assay type: functional
Common to all, as to settings: 24 h

In test [1] the test system is Aphis craccivora. Nature of the test: Insecticidal activity against Aphis craccivora (cowpea aphid) assessed as mortality at 15.625 ug/mL measured after 1 day.
Test [2] deals with Aphis craccivora. Nature of the test: Insecticidal activity against Aphis craccivora (cowpea aphid) assessed as mortality at 62.5 ug/mL measured after 1 day.
Test [3] deals with Aphis craccivora. Nature of the test: Insecticidal activity against Aphis craccivora (cowpea aphid) assessed as mortality at 500 ug/mL measured after 1 day.
Test [4] deals with Aphis craccivora. In words: Insecticidal activity against Aphis craccivora (cowpea aphid) assessed as mortality at 450 ug/mL measured after 1 day.
In test [5] the test system is Aphis craccivora. In words: Insecticidal activity against Aphis craccivora (cowpea aphid) assessed as mortality at 125 ug/mL measured after 1 day.

The values below come from ChEMBL document CHEMBL3046059, “Syntheses and biological activities of octahydro-1H-cyclopenta[d]pyrimidine derivatives” (2007).

The term mortality denotes the percentage killed.

On to `O=[N+]([O-])/C=C1\NCCN1Cc1ccc(Cl)nc1`, for which, in test [1], the mortality at 15.625 µg/mL is 60%. Further, in test [2], the mortality at 62.5 µg/mL was found to be 94%.

Consider `CN1CC([N+](=O)[O-])=C2N(CC3CCCC3N2Cc2ccc(Cl)nc2)C1` (stereo not given), for which the mortality at 500 µg/mL in test [3] amounted to 54%.

Turning to `O=[N+]([O-])/C=C1\NCC2CCCC2N1Cc1ccc(Cl)nc1` (stereo not given), the mortality at 500 µg/mL in test [3] was determined as 83%.

With `O=[N+]([O-])/C=C1\NC2CCCC2CN1Cc1ccc(Cl)nc1` (stereo not given), the mortality at 500 µg/mL in test [3] was < 59%.

`O=[N+]([O-])/C=C1\NCC2CCCC2N1Cc1cccnc1` (stereo not given): the mortality at 500 µg/mL in test [3] is 82%.

For the compound `N#C/N=C1\NCC2CCCC2N1Cc1ccc(Cl)nc1` (stereo not given), the mortality at 500 µg/mL in test [3] is 38%.

`CC1CCC2CN/C(=C\[N+](=O)[O-])N(Cc3ccc(Cl)nc3)C12` (stereo not given): in test [3], the mortality at 500 µg/mL was 51%.

For the compound `CCN1CC([N+](=O)[O-])=C2N(CC3CCCC3N2Cc2ccc(Cl)nc2)C1` (stereo not given), the mortality at 500 µg/mL in test [3] was 90%.

Take `CC(C)N1CC([N+](=O)[O-])=C2N(CC3CCCC3N2Cc2ccc(Cl)nc2)C1` (stereo not given): in test [4], the mortality at 450 µg/mL is 88%. Besides, the mortality at 125 µg/mL in test [5] was 56%.

For the compound `CCCN1CC([N+](=O)[O-])=C2N(CC3CCCC3N2Cc2ccc(Cl)nc2)C1` (stereo not given), the mortality at 500 µg/mL in test [3] came out at 61%.

Turning to `CCCCN1CC([N+](=O)[O-])=C2N(CC3CCCC3N2Cc2ccc(Cl)nc2)C1` (stereo not given), the mortality at 500 µg/mL in test [3] is 32%.

Consider `O=[N+]([O-])C1=C2N(CC3CCCC3N2Cc2ccc(Cl)nc2)CN(CCO)C1` (stereo not given), for which, in test [3], the mortality at 500 µg/mL amounted to 60%.

For the compound `CS/C(=N\C#N)NCC1CCCC1NCc1ccc(Cl)nc1` (stereo not given), in test [3], the mortality at 500 µg/mL amounted to 34%.
